From patent US20240325366A1, “SELECTIVE CDK9 INHIBITOR FOR THE TREATMENT OF A RAS MUTANT CANCER” (VINCERX PHARMA, INC., priority 2021, published 2024)
Read-outs that look alike come from different tables or passages of the source.

How the values were obtained:
Format in all cases: cell-based
[1] = tested on: panel of 500 tumor cell lines; experiment: antiproliferative activity, panel of 500 tumor cell lines (OmniScreen)
Description: (§1) To determine associations of genomic alterations with compound 1′ sensitivity, 458 were mapped to a cell line present in DepMap (21Q3). Of the 458 cell lines mapped, there were 440 with available mutation data in DepMap. Cell line mutation and copy number data were accessed and for mutations, the data were filtered to include variants with a “damaging” or “other non-conserving” annotation only, in order to select variants which are more likely to be functionally important. The top quartile of cell lines based on their compound 1′IC50 values were defined as groups for comparison with the bottom quartile.

143B = experiment: antiproliferative activity (OmniScreen); conditions: Homo sapiens, Bone, 72 hours, read-out: Absolute IC50
Description: as §1

Calu-6 = experiment: antiproliferative activity (OmniScreen); conditions: Homo sapiens; Calu-6, Lung, 72 hours; read-out: Absolute IC50
Description: as §1

CoC1/DDP = experiment: antiproliferative activity (OmniScreen); conditions: Ovary, 72 hours, read-out: Absolute IC50
Description: as §1

DV-90 = experiment: antiproliferative activity (OmniScreen); conditions: Homo sapiens; DV-90, Lung, 72 hours; read-out: Absolute IC50
Description: as §1

HCC44 = experiment: antiproliferative activity (OmniScreen); conditions: Homo sapiens; HCC44, Lung, 72 hours; read-out: Absolute IC50
Description: as §1

HEC-1-B = experiment: antiproliferative activity (OmniScreen); conditions: Homo sapiens, Uterus, 72 hours, read-out: Absolute IC50
Description: as §1

LCLC-97TM1 = experiment: antiproliferative activity (OmniScreen); conditions: Homo sapiens; LCLC-97TM1, Lung, 72 hours; read-out: Absolute IC50
Description: as §1

LS513 = experiment: antiproliferative activity (OmniScreen); conditions: Homo sapiens, LS-513; LS513, Large intestine/Colorectum, 72 hours; read-out: Absolute IC50
Description: as §1

MOLP8 = experiment: antiproliferative activity (OmniScreen); conditions: Homo sapiens, MOLP-8; MOLP8, Blood/Myeloma, 72 hours; read-out: Absolute IC50
Description: as §1

NCI-H1944 = experiment: antiproliferative activity (OmniScreen); conditions: Homo sapiens; NCI-H1944, Lung, 72 hours; read-out: Absolute IC50
Description: as §1

NCI-H2122 = experiment: antiproliferative activity (OmniScreen); conditions: Homo sapiens; NCI-H2122, Lung, 72 hours; read-out: Absolute IC50
Description: as §1

NCI-H358 = experiment: antiproliferative activity (OmniScreen); conditions: Homo sapiens; NCI-H358, Lung, 72 hours; read-out: Absolute IC50
Description: as §1

Panc 05.04 = experiment: antiproliferative activity (OmniScreen); conditions: Panc 05.04, Pancreas, 72 hours; read-out: Absolute IC50
Description: as §1

RBE = experiment: antiproliferative activity (OmniScreen); conditions: Liver/Bile duct, 72 hours, read-out: Absolute IC50
Description: as §1

SU-DHL-10 = experiment: antiproliferative activity (OmniScreen); conditions: Homo sapiens, SU-DHL10; SU-DHL-10, Lymphoma, 72 hours; read-out: Absolute IC50
Description: as §1

SU.86.86 = experiment: antiproliferative activity (OmniScreen); conditions: Homo sapiens; SU.86.86, Pancreas, 72 hours; read-out: Absolute IC50
Description: as §1

UM-UC-3 = experiment: antiproliferative activity (OmniScreen); conditions: Homo sapiens, UMUC3; UM-UC-3, Bladder, 72 hours; read-out: Absolute IC50
Description: as §1

A549 = experiment: in vitro cytotoxicity, MTT assay; conditions: Homo sapiens; A549, Lung, KRAS p.G12S
Procedure: (§2) Cultivation of cells was performed according to standard procedures with the media recommended by the provider. The cells, in a total volume of 100 μL, were seeded in a 96-well plate with a white bottom (#3610). After a 24h incubation period at 37° C. and 5% CO2 the medium was exchanged by adding 90 μL fresh medium. The treatment started by adding the test compound in 10 μL of culture medium to the cells in triplicates. Concentrations ranging from 10^−6 M to 10^−13 M were chosen. The proliferation was detected using the MTT assay (ATCC). At the end of the incubation period the MTT reagent was added to all samples for 4h. Lysis of the cells followed by addition of the detergent was done overnight. The formed dye was detected at 570 nm. The proliferation of cells was defined as the 100% value.

COLO205 = experiment: in vitro cytotoxicity, MTT assay; conditions: Homo sapiens, COLO 205; COLO205, Colorectal, KRAS WT
Procedure: as §2

HCT116 = experiment: in vitro cytotoxicity, MTT assay; conditions: Homo sapiens, HCT-116; HCT116, Colorectal, KRAS p.G13D
Procedure: as §2

HCT15 = experiment: in vitro cytotoxicity, MTT assay; conditions: Homo sapiens, HCT-15; HCT15, Colorectal, KRAS p.G13D
Procedure: as §2

HCT8 = experiment: in vitro cytotoxicity, MTT assay; conditions: Homo sapiens, HCT-8; HCT8, Colorectal, KRAS WT
Procedure: as §2

HT-29 = experiment: in vitro cytotoxicity, MTT assay; conditions: Homo sapiens; HT-29, Colorectal, KRAS WT
Procedure: as §2

MIAPaCa2 = experiment: in vitro cytotoxicity, MTT assay; conditions: Homo sapiens, MIA PaCa-2; MIAPaCa2, Pancreatic, KRAS pG12C
Procedure: as §2

NCI-H460 = experiment: in vitro cytotoxicity, MTT assay; conditions: Homo sapiens; NCI-H460, Lung, KRAS p.Q61H
Procedure: as §2

SW480 = experiment: in vitro cytotoxicity, MTT assay; conditions: Homo sapiens; SW480, Colorectal, KRAS p.G12V
Procedure: as §2

SW620 = experiment: in vitro cytotoxicity, MTT assay; conditions: Homo sapiens, SW-620; SW620, Colorectal, KRAS p.G12V
Procedure: as §2

SW837 = experiment: in vitro cytotoxicity, MTT assay; conditions: Homo sapiens; SW837, Colorectal, KRAS pG12C
Procedure: as §2

[2] = tested on: KRAS mutant colorectal and lung cancer cell lines; experiment: in vitro cytotoxicity, MTT assay, summary; conditions: multiple KRAS mutant colorectal and lung cancer cell lines
Procedure: as §2

COc1cc(F)ccc1-c1cc(Nc2cc(CS(C)(=N)=O)ccn2)ncc1F (single isomer, unassigned; (+)) [Compound 1′, (+)5-fluoro-4-(4-fluoro-2-methoxyphenyl)-N-{4-[(S-methylsulfonimidoyl)methyl]pyridin-2-yl}pyridin-2-amine]
IC50 ([1]; N=110 cell lines with mutation data in DepMap, read-out: IC50 bottom quartile (most sensitive cell lines)): ≤ 90.5 nM | IC50 ([1]; N=130 cell lines with mutation data in DepMap, read-out: IC50 top quartile (least sensitive cell lines)): ≥ 152 nM | IC50 ([1]; panel of 500 tumor cell lines, 72 hours of treatment, read-out: IC50 range, lower end): 28 nM | IC50 ([1]; panel of 500 tumor cell lines, 72 hours of treatment, read-out: IC50 range, upper end): 2100 nM | IC50 ([1]; panel of 500 tumor cell lines, 72 hours of treatment, read-out: mean IC50): 113 nM | IC50 (143B): 73 nM | IC50 (Calu-6): 39 nM | IC50 (CoC1/DDP): 72 nM | IC50 (DV-90): 90 nM | IC50 (HCC44): 90 nM | IC50 (HEC-1-B): 67 nM | IC50 (LCLC-97TM1): 46 nM | IC50 (LS513): 51 nM | IC50 (MOLP8): 80 nM | IC50 (NCI-H1944): 75 nM | IC50 (NCI-H2122): 70 nM | IC50 (NCI-H358): 41 nM | IC50 (Panc 05.04): 38 nM | IC50 (RBE): 72 nM | IC50 (SU-DHL-10): 74 nM | IC50 (SU.86.86): 82 nM | IC50 (UM-UC-3): 67 nM | IC50 (A549): 98 nM | IC50 (COLO205): 70 nM | IC50 (HCT116): 46 nM | IC50 (HCT15): 33.5 nM | IC50 (HCT8): 83 nM | IC50 (HT-29): 83 nM | IC50 (MIAPaCa2): 128 nM | IC50 (NCI-H460): 75 nM | IC50 (SW480): 143 nM | IC50 (SW620): > 500 nM | IC50 (SW837): 620 nM | activity against KRAS mutant cancer cell lines [2]: active
